In patent publication US20220370382A1, “METHODS AND COMPOSITIONS FOR CORRECTION OF AUTONOMIC DYSFUNCTIONS” (priority 2021, published 2022):

How the values were obtained:
[1] = test system: patients with autonomic dysfunction and/or connective tissue disorders; details: person, POTS, Idiopathic Intracranial Hypertension; acetazolamide 250 mg three times per day
Text: Acetazolamide was prescribed for high intracranial pressure.

[2] = test system: patients with autonomic dysfunction and/or connective tissue disorders; test: Patient case studies: other signs (tachycardia, dry eyes, light sensitivity, Roth spot, gallbladder function, pseudotumor cerebri symptoms); format: in vivo, human; details: person, POTS, Idiopathic Intracranial Hypertension; acetazolamide 250 mg three times per day
Procedure: They also suffered with poor digestion, dry eyes, and fatigue.
Most every day (usually in the evenings) they experienced pseudo seizures lasting from 30 minutes to three hours. These began with their eyes rolling up and their eyelids fluttering, then they progressed to full body twitching and spasming. These pseudo seizures continued for over three years, but physicians were unable to locate the source of their symptoms. A Roth spot in their ocular fundus in addition to numerous symptoms of nutrient malabsorption were noted. They suffered with light sensitivity secondary to large pupils (5.5 mm), weight loss, extreme fatigue, constipation, tachycardia, and dry eyes.
Gallbladder removal surgery was recommended.

[3] = cited from earlier work
[4] = test system: effector organs of the vagus nerve; test: Stimulation of the effector organs of the vagus nerve in patients tested; format: in vivo, human
Text: Certain ingredients of the compound (a choline compound, an acetylcholinesterase inhibitor and Acetyl-L-Carnitine) have been used to reduce inflammation, to assist those suffering from metabolic insufficiencies, and for healthy memory and mental function, and numerous studies have been published involving cognition, dementia, age-related memory loss and neurodegeneration with these ingredients. (U.S. Pat. No. 6,537,969 B1, Patent No. US 2008/0213401). […] It is not intuitive or obvious that any two of these ingredients can also be effective and that any two of these ingredients can restore parasympathetic nerve function even when the postganglionic nerve is not viable for any reason, by directly stimulating the effector organs themselves.
Driscoll found the use of nicotine can diagnose pre-ganglionic vagus nerve dysfunction. […] Nicotine (transdermal, suppository, or) can be used to discern receptor damage from either direct nerve damage or neurotransmitter dysfunction. These forms of nicotine can be used to verify that the organ is capable of responding, to test the cholinergic receptors or postganglionic nerve, or can be used for short periods of time to assist with said organ function (ileocecal valve, gastroparesis/constipation, gallbladder, pancreas, gastric acid secretion). No part of the vagus nerve is required for the use of nicotine to be effective because the invention can effectively stimulate the receptor on the organ itself. […]

[5] = person, Ehlers-Danlos syndrome, given for a hospital-induced infection

**Q.** With CC(=O)Nc1nnc(S(N)(=O)=O)s1 [acetazolamide] as the compound, how does the visual snow [1] read?
**A.** did not improve

**Q.** And the pseudotumor cerebri symptoms [2]?
**A.** relieved

**Q.** Which lethal dosage ([3]; human, in vivo) does the source give for CN1CCCC1c1cccnc1 (centres unmarked) [Nicotine] here?
**A.** 60 mg

**Q.** What about the “side effects on chronic use” value ([3]; treatment of parasympathetic and vagus nerve dysfunction on a chronic basis) of the same compound?
**A.** dermatographia, hives, itching, and welting

**Q.** For C[N+](C)(C)CC(O)CC(=O)[O-] (centres unmarked) [carnitine], which “organ function when added to the compound” value ([4]; case studies, patients with organ malfunction secondary to poor vagus nerve function) is on record?
**A.** better organ function

**Q.** Which “stimulation of the effector organs of the vagus nerve / restoration of vagus nerve function” value ([4]; patients tested, ingredient used alone, or nicotine by the stated route (transdermal 1-21 mg)) does the source give for CN1CCCC1c1cccnc1 (centres unmarked) [oral nicotine, nicotine] here?
**A.** not effective

**Q.** Which “autonomic dysfunction or disorders of the effector organs of the parasympathetic nervous system” value ([4]; supplementation alone) does the source give for Cc1ncc(C[n+]2csc(CCO)c2C)c(N)n1 [Thiamin] here?
**A.** will not eliminate

**Q.** With CN[C@H](CC(C)C)C(=O)N[C@H]1C(=O)N[C@@H](CC(N)=O)C(=O)N[C@H]2C(=O)N[C@H]3C(=O)N[C@H](C(=O)N[C@H](C(=O)O)c4cc(O)cc(O)c4-c4cc3ccc4O)[C@H](O)c3ccc(c(Cl)c3)Oc3cc2cc(c3O[C@@H]2O[C@H](CO)[C@@H](O)[C@H](O)[C@H]2O[C@H]2C[C@](C)(N)[C@H](O)[C@H](C)O2)Oc2ccc(cc2Cl)[C@H]1O [Vancomycin] as the compound, how does the “adverse reaction to antibiotic” value [5] read?
**A.** developed hives and dramatic flushing
